Pest or weed control data for 7 compounds are collected here from patent US20110086759A1, “CHEMICAL COMPOUNDS” (SYNGENTA CROP PROTECTION, INC., priority 2007, published 2011).

Assay type in all cases: in vivo
The subject of experiment [1] is Setaria faberi (SETFA). The experiment is described as follows: Pre-emergence biological efficacy, glasshouse pot test. As to conditions: 312 h. Summed up: (§1)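 One day after seeds were sown in pots, compound was sprayed at 1000 or 250 g/ha. Plants were kept at 24/16 °C with 14 h light and 65% humidity and watered twice daily; damage was graded at day 13 (0 none, 100 total).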

The test system of experiment [2] is Solanum nigrum (SOLNI). Described as above. As to conditions: 312 h. The method in brief:
as §1

For experiment [3], the system named is Echinochloa crus-galli (ECHCG). The experiment is described as above. Conditions: 312 h. The method in brief:
as §1

Experiment [4] concerns Alopecurus myosuroides (ALOMY). Described as above. Conditions: 312 h. The method in brief:
as §1

Experiment [5] relates to Amaranthus retoflexus (AMARE). Described as above. As to conditions: Amaranthus retroflexus, 312 h. Summed up:
as §1

The test system of experiment [6] is Ipomea hederaceae (IPOHE). Described as above. Conditions: Ipomoea hederacea, 312 h. Summed up:
as §1

Experiment [7] concerns Setaria faberi (SETFA). Description: Post-emergence biological efficacy, glasshouse pot test. As to conditions: 312 h. The method in brief: (§2)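 Plants were sown in standard soil and grown 8 days in a glasshouse (24/16° C. day/night, 14 hours light, 65% humidity), then sprayed post-emergence at 1000 or 250 g/ha from acetone/water (50:50) with 0.5% Tween 20. Damage was scored visually after 13 days (0 = none, 100 = total).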

The subject of experiment [8] is Solanum nigrum (SOLNI). The experiment is described as above. Conditions: 312 h. Summed up:
as §2

Experiment [9] has as its system Echinochloa crus-galli (ECHCG). Described as above. Conditions: 312 h. Summed up: as §2
Experiment [10] relates to Alopecurus myosuroides (ALOMY). The description is as above. Conditions: 312 h. Summed up:
as §2

In experiment [11] the test system is Amaranthus retoflexus (AMARE). Described as above. As to conditions: Amaranthus retroflexus, 312 h. The method in brief:
as §2

For experiment [12], the system named is Ipomea hederaceae (IPOHE). The experiment is described as above. Conditions: Ipomoea hederacea, 312 h. The method in brief:
as §2

Where [13] appears, read: pre-emergence, rate 1,000 g/ha, evaluated after 13 days (100=total damage to plant; 0=no damage), read-out: Percentage damage caused to weed species, SETFA.
Where [14] appears, read: pre-emergence, rate 1,000 g/ha, evaluated after 13 days (100=total damage to plant; 0=no damage), read-out: Percentage damage caused to weed species, SOLNI.
Where [15] appears, read: pre-emergence, rate 1,000 g/ha, evaluated after 13 days (100=total damage to plant; 0=no damage), read-out: Percentage damage caused to weed species, ECHCG.
The mark [16] stands for this setting: pre-emergence, rate 1,000 g/ha, evaluated after 13 days (100=total damage to plant; 0=no damage), read-out: Percentage damage caused to weed species, ALOMY.
[17] abbreviates: pre-emergence, rate 1,000 g/ha, evaluated after 13 days (100=total damage to plant; 0=no damage), read-out: Percentage damage caused to weed species, AMARE.
Where [18] appears, read: pre-emergence, rate 1,000 g/ha, evaluated after 13 days (100=total damage to plant; 0=no damage), read-out: Percentage damage caused to weed species, IPOHE.
Setting [19] is: Rate 1,000 g/ha, post-emergence spray, evaluated after 13 days (100=total damage to plant; 0=no damage to plant), read-out: Percentage damage caused to weed species, post-emergence, SETFA.
Where [20] appears, read: Rate 1,000 g/ha, post-emergence spray, evaluated after 13 days (100=total damage to plant; 0=no damage to plant), read-out: Percentage damage caused to weed species, post-emergence, SOLNI.
[21] abbreviates: Rate 1,000 g/ha, post-emergence spray, evaluated after 13 days (100=total damage to plant; 0=no damage to plant), read-out: Percentage damage caused to weed species, post-emergence, ECHCG.
Where [22] appears, read: Rate 1,000 g/ha, post-emergence spray, evaluated after 13 days (100=total damage to plant; 0=no damage to plant), read-out: Percentage damage caused to weed species, post-emergence, ALOMY.
[23] abbreviates: Rate 1,000 g/ha, post-emergence spray, evaluated after 13 days (100=total damage to plant; 0=no damage to plant), read-out: Percentage damage caused to weed species, post-emergence, AMARE.
Setting [24] is: Rate 1,000 g/ha, post-emergence spray, evaluated after 13 days (100=total damage to plant; 0=no damage to plant), read-out: Percentage damage caused to weed species, post-emergence, IPOHE.
Setting [25] is: pre-emergence, 1,000 g/ha, evaluated after 13 days (100=total damage; 0=no damage), read-out: Percentage damage SETFA.
[26] abbreviates: pre-emergence, 1,000 g/ha, evaluated after 13 days (100=total damage; 0=no damage), read-out: Percentage damage SOLNI.
The mark [27] stands for this setting: pre-emergence, 1,000 g/ha, evaluated after 13 days (100=total damage; 0=no damage), read-out: Percentage damage ECHCG.
The mark [28] stands for this setting: pre-emergence, 1,000 g/ha, evaluated after 13 days (100=total damage; 0=no damage), read-out: Percentage damage ALOMY.
[29] abbreviates: pre-emergence, 1,000 g/ha, evaluated after 13 days (100=total damage; 0=no damage), read-out: Percentage damage AMARE.
Setting [30] is: pre-emergence, 1,000 g/ha, evaluated after 13 days (100=total damage; 0=no damage), read-out: Percentage damage IPOHE.
The mark [31] stands for this setting: post-emergence, 1,000 g/ha, evaluated after 13 days (100=total damage; 0=no damage), read-out: Percentage damage caused to weed species, SETFA.
Where [32] appears, read: post-emergence, 1,000 g/ha, evaluated after 13 days (100=total damage; 0=no damage), read-out: Percentage damage caused to weed species, SOLNI.
Setting [33] is: post-emergence, 1,000 g/ha, evaluated after 13 days (100=total damage; 0=no damage), read-out: Percentage damage caused to weed species, ECHCG.
Setting [34] is: post-emergence, 1,000 g/ha, evaluated after 13 days (100=total damage; 0=no damage), read-out: Percentage damage caused to weed species, ALOMY.
[35] abbreviates: post-emergence, 1,000 g/ha, evaluated after 13 days (100=total damage; 0=no damage), read-out: Percentage damage caused to weed species, AMARE.
[36] abbreviates: post-emergence, 1,000 g/ha, evaluated after 13 days (100=total damage; 0=no damage), read-out: Percentage damage caused to weed species, IPOHE.

Structures are written as SMILES.

With `COC(=O)c1nc(-c2ccc(OC)cc2OC)nc(NCc2ccco2)c1Cl` [Compound 252-48, 5-Chloro-2-(2,4-dimethoxyphenyl)-4-(furan-2-yl-methyl-amino)-6-methoxy-carbonylpyrimidine], the pest or weed control at 1000 g/ha in the experiment on Setaria faberi (SETFA) [1] (setting [13]) stood at 20%; with Solanum nigrum (SOLNI) [2] (setting [14]), 0%; in experiment [3] (setting [15]), 0%; in [4] (setting [16]), 0%; in experiment [5] (setting [17]) it was 0%; in [6] (setting [18]) it was 0%. In addition, the pest or weed control at 1000 g/ha was determined as 0% with Setaria faberi (SETFA) [7] (setting [19]); 20% with Solanum nigrum (SOLNI) [8] (setting [20]); 0% in experiment [9] (setting [21]); 0% in experiment [10] (setting [22]); 30% in [11] (setting [23]); 30% in experiment [12] (setting [24]).
As for `COC(=O)c1nc(C2CC2)nc(NCc2ccc(Cl)cc2Cl)c1Cl` [Compound 4-103, 5-Chloro-2-cyclopropyl-4-(2,4-dichlorophenyl-methylamino)-6-methoxycarbonyl-pyrimidine], the pest or weed control at 1000 g/ha with Setaria faberi (SETFA) [1] (setting [25]) was found to be 0%; with Solanum nigrum (SOLNI) [2] (setting [26]) it was 10%; in experiment [3] (setting [27]), 0%; in [4] (setting [28]), 10%; in experiment [5] (setting [29]), 40%; in experiment [6] (setting [30]) it was 30%. The pest or weed control at 1000 g/ha was 70% in the experiment with Setaria faberi (SETFA) [7] (setting [31]); 80% in the experiment on Solanum nigrum (SOLNI) [8] (setting [32]); 60% in [9] (setting [33]); 20% in [10] (setting [34]); 100% in experiment [11] (setting [35]); 90% in experiment [12] (setting [36]).
For `COC(=O)c1nc(C2CC2)nc(N(C)Cc2ccc(N)cc2)c1Cl` [Compound 5-86, 4-[N-(4-aminophenylmethyl)-N-methyl-amino]-5-chloro-2-cyclopropyl-6-methoxycarbonyl-pyrimidine], the pest or weed control at 1000 g/ha in the experiment on Setaria faberi (SETFA) [1] (setting [13]) amounted to 30%; with Solanum nigrum (SOLNI) [2] (setting [14]), 100%; in experiment [3] (setting [15]), 50%; in [4] (setting [16]) it was 40%; in [5] (setting [17]), 100%; in [6] (setting [18]) it was 100%. Further, the pest or weed control at 1000 g/ha in the experiment with Setaria faberi (SETFA) [7] (setting [19]) stood at 90%; with Solanum nigrum (SOLNI) [8] (setting [20]) it was 90%; in [9] (setting [21]) it was 70%; in experiment [10] (setting [22]), 40%; in [11] (setting [23]) it was 100%; in experiment [12] (setting [24]), 100%.
In the case of `COC(=O)c1nc(C2CC2)nc(Nc2ccc(Cl)c(Cl)c2)c1Cl` [Compound 4-42, 5-Chloro-2-cyclopropyl-4-(3,4-dichlorophenyl-amino)-6-methoxycarbonyl-pyrimidine], the pest or weed control at 1000 g/ha with Setaria faberi (SETFA) [1] (setting [25]) came to 10%; in the experiment on Solanum nigrum (SOLNI) [2] (setting [26]), 0%; in [3] (setting [27]), 20%; in [4] (setting [28]), 10%; in experiment [5] (setting [29]), 30%; in [6] (setting [30]), 0%. The pest or weed control at 1000 g/ha was 0% in the experiment on Setaria faberi (SETFA) [7] (setting [31]); 50% in the experiment with Solanum nigrum (SOLNI) [8] (setting [32]); 10% in [9] (setting [33]); 10% in [10] (setting [34]); 50% in experiment [11] (setting [35]); 60% in experiment [12] (setting [36]).
`COC(=O)c1nc(C2CC2)nc(NCc2c(OC)cccc2OC)c1Cl` [Compound 4-111, 5-Chloro-2-cyclopropyl-4-(2,6-dimethoxyphenyl-methylamino)-6-methoxycarbonyl-pyrimidine]: the pest or weed control at 1000 g/ha stood at 40% with Setaria faberi (SETFA) [1] (setting [25]); 60% in the experiment on Solanum nigrum (SOLNI) [2] (setting [26]); 50% in experiment [3] (setting [27]); 20% in [4] (setting [28]); 90% in experiment [5] (setting [29]); 80% in [6] (setting [30]). Besides, the pest or weed control at 1000 g/ha is 80% in the experiment with Setaria faberi (SETFA) [7] (setting [31]); 100% with Solanum nigrum (SOLNI) [8] (setting [32]); 60% in experiment [9] (setting [33]); 30% in [10] (setting [34]); 100% in [11] (setting [35]); 100% in experiment [12] (setting [36]).
`COC(=O)c1nc(C2CC2)nc(N(Cc2ccccc2)C[Si](C)(C)C)c1Cl` [Compound 150-60, 5-Chloro-2-cyclopropyl-6-methoxycarbonyl-4-(N-phenylmethyl-N-trimethylsilylmethyl-amino)pyrimidine]: the pest or weed control at 1000 g/ha with Setaria faberi (SETFA) [1] (setting [13]) stood at 20%; in the experiment with Solanum nigrum (SOLNI) [2] (setting [14]), 70%; in experiment [3] (setting [15]) it was 40%; in [4] (setting [16]), 20%; in [5] (setting [17]), 80%; in experiment [6] (setting [18]), 90%. In addition, the pest or weed control at 1000 g/ha stood at 70% in the experiment with Setaria faberi (SETFA) [7] (setting [19]); 90% with Solanum nigrum (SOLNI) [8] (setting [20]); 60% in [9] (setting [21]); 40% in experiment [10] (setting [22]); 100% in experiment [11] (setting [23]); 90% in experiment [12] (setting [24]).
As to `COC(=O)c1nc(C2CC2)nc(N[C@@H](CO)[C@@H](O)c2ccc([N+](=O)[O-])cc2)c1Cl` [4-275 (S,S), 5-Chloro-2-cyclopropyl-4-[(1S, 2S)-2-hydroxy-1-hydroxymethyl-2-(4-nitrophenyl)-ethylamino]-6-methoxycarbonyl-pyrimidine], the pest or weed control at 1000 g/ha in the experiment on Setaria faberi (SETFA) [1] (setting [25]) was 60%; in the experiment on Solanum nigrum (SOLNI) [2] (setting [26]), 100%; in [3] (setting [27]) it was 30%; in experiment [4] (setting [28]), 30%; in [5] (setting [29]), 100%; in [6] (setting [30]) it was 100%. Further, the pest or weed control at 1000 g/ha with Setaria faberi (SETFA) [7] (setting [31]) was 80%; with Solanum nigrum (SOLNI) [8] (setting [32]), 100%; in experiment [9] (setting [33]), 60%; in experiment [10] (setting [34]), 40%; in experiment [11] (setting [35]), 100%; in experiment [12] (setting [36]), 70%.
